Test results published in ChEMBL document CHEMBL4004792, “Monascustin, an Unusual γ-Lactam from Red Yeast Rice” (J Nat Prod, 2017).
The source made the active and inactive calls. No cut-off for these calls is given here.

Tests used:
HCT-8 = experiment: Cytotoxicity against human HCT8 cells at 10 uM after 24 hrs by MTT assay; format: functional, cell-based
BGC-823 = experiment: Cytotoxicity against human BGC823 cells at 10 uM after 24 hrs by MTT assay; format: functional, cell-based
Bel-7402 = experiment: Cytotoxicity against human Bel7402 cells at 10 uM after 24 hrs by MTT assay; format: functional, cell-based
Peritoneal macrophage = experiment: Inhibition of LPS-stimulated TNFalpha secretion in C57BL6J mouse peritoneal macrophages at 50 uM after 24 hrs; format: functional, cell-based
A2780 = experiment: Cytotoxicity against human A2780 cells at 10 uM after 24 hrs by MTT assay; format: functional, cell-based
A549 = experiment: Cytotoxicity against human A549 cells at 10 uM after 24 hrs by MTT assay; format: functional, cell-based
Histone deacetylase 1 = Histone deacetylase 1 (Homo sapiens, UniProt Q13547); experiment: Inhibition of human HDAC1 using H3(1-21)K9 after 60 mins by fluorescence assay
Chain of Histone deacetylase 1 (Q13547 whole entry): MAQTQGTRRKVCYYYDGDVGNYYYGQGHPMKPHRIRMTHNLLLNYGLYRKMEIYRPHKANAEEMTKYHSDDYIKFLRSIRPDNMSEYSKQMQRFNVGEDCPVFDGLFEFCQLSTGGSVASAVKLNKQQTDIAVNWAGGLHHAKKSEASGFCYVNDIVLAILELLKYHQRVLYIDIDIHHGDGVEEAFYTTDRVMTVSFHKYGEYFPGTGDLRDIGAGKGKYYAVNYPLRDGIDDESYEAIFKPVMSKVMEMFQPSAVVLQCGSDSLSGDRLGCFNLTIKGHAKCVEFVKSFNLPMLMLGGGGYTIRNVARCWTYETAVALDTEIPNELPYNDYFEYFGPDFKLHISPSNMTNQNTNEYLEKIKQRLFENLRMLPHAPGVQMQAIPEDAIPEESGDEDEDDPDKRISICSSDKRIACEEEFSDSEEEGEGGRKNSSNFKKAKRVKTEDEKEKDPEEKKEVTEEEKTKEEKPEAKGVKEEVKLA

In the case of CC(C)C[C@@]1(C(N)=O)NC(=O)C[C@]1(C)O, the Activity (HCT-8) is reported as “inactive”, the Activity (BGC-823) is reported as “inactive” and the Activity (Bel-7402) is reported as “inactive”. The inhibition (Peritoneal macrophage) was “inactive”, the Activity (A2780) was “inactive” and the Activity (A549) was “inactive”. It also gave an IC50 (Histone deacetylase 1) of 3.7 µM.
